Assay [1] has as its target Proto-oncogene tyrosine-protein kinase ROS (Homo sapiens, UniProt P08922). The experiment in a line: Inhibition of ROS1 (unknown origin) assessed as remaining activity.
In assay [2] the target is AP2-associated protein kinase 1 (Homo sapiens) (UniProt Q2M2I8). The assay can be described thus: Inhibition of AAK1 (unknown origin) assessed as residual activity at 10 uM relative to control.
The target of assay [3] is Atypical kinase COQ8A, mitochondrial (Homo sapiens) (UniProt Q8NI60). The experiment in a line: Inhibition of ADCK3 (unknown origin) assessed as residual activity at 10 uM relative to control.
Assay [4] has as its target ALK tyrosine kinase receptor (Homo sapiens) (UniProt Q9UM73). The assay can be described thus: Inhibition of ALK (unknown origin) assessed as residual activity at 20 uM relative to control.
Assay [5] has as its target Aurora kinase A (Homo sapiens) (UniProt O14965). The assay can be described thus: Inhibition of aurora A kinase (unknown origin) assessed as residual activity at 10 uM relative to control.
Assay [6] addresses BMP-2-inducible protein kinase (Homo sapiens) (UniProt Q9NSY1). The assay can be described thus: Inhibition of BIKE (unknown origin) assessed as residual activity at 10 uM relative to control.
Assay [7] concerns the target Tyrosine-protein kinase Blk (Homo sapiens) (UniProt P51451). The experiment in a line: Inhibition of BLK (unknown origin) assessed as residual activity at 10 uM relative to control.
In assay [8] the target is Serine/threonine-protein kinase B-raf (Homo sapiens) (UniProt P15056). The assay can be described thus: Inhibition of BRAF (unknown origin) assessed as residual activity at 10 uM relative to control.
Assay [9] relates to Serine/threonine-protein kinase B-raf (Homo sapiens), P15056 [V600E]. The assay can be described thus: Inhibition of BRAF V600E mutant (unknown origin) assessed as residual activity at 10 uM relative to control.
Assay [10] has as its target Ephrin type-B receptor 6 (Homo sapiens) (UniProt O15197). The assay can be described thus: Inhibition of EPHB6 (unknown origin) assessed as residual activity at 10 uM relative to control.
The target of assay [11] is Receptor-type tyrosine-protein kinase FLT3 (Homo sapiens) (UniProt P36888). The assay can be described thus: Inhibition of FLT3 (unknown origin) assessed as residual activity at 10 uM relative to control.
Assay [12] concerns Receptor-type tyrosine-protein kinase FLT3 (Homo sapiens), P36888 [N841I]. The assay can be described thus: Inhibition of FLT3 N841I mutant (unknown origin) assessed as residual activity at 10 uM relative to control.
Assay [13] has as its target Tyrosine-protein kinase HCK (Homo sapiens) (UniProt P08631). The experiment in a line: Inhibition of HCK (unknown origin) assessed as residual activity at 10 uM relative to control.
The target in assay [14] is Tyrosine-protein kinase JAK2 (Homo sapiens) (UniProt O60674). The experiment in a line: Inhibition of JAK2 (unknown origin) assessed as residual activity at 10 uM relative to control.
Assay [15] deals with Mast/stem cell growth factor receptor Kit (Homo sapiens) (UniProt P10721). The assay can be described thus: Inhibition of KIT (unknown origin) assessed as residual activity at 10 uM relative to control.
The target of assay [16] is Leukocyte tyrosine kinase receptor (Homo sapiens) (UniProt P29376). The experiment in a line: Inhibition of LTK (unknown origin) assessed as residual activity at 10 uM relative to control.
Assay [17] deals with Hepatocyte growth factor receptor (Homo sapiens) (UniProt P08581). The assay can be described thus: Inhibition of c-MET (unknown origin) assessed as residual activity at 20 uM relative to control.
The target of assay [18] is Phosphatidylinositol 4-phosphate 3-kinase C2 domain-containing subunit beta (Homo sapiens) (UniProt O00750). The assay can be described thus: Inhibition of PIK3C2B (unknown origin) assessed as residual activity at 10 uM relative to control.
The target in assay [19] is Phosphatidylinositol 4,5-bisphosphate 3-kinase catalytic subunit alpha isoform (Homo sapiens) (UniProt P42336). The experiment in a line: Inhibition of PIK3CA (unknown origin) assessed as residual activity at 10 uM relative to control.
Assay [20] deals with Phosphatidylinositol 4,5-bisphosphate 3-kinase catalytic subunit alpha isoform (Homo sapiens), P42336 [E542K]. The experiment in a line: Inhibition of PIK3CA E542K mutant (unknown origin) assessed as residual activity at 10 uM relative to control.
Assay [21] has as its target Phosphatidylinositol 4,5-bisphosphate 3-kinase catalytic subunit beta isoform (Homo sapiens) (UniProt P42338). The experiment in a line: Inhibition of PIK3CB (unknown origin) assessed as residual activity at 10 uM relative to control.
In assay [22] the target is Phosphatidylinositol 4,5-bisphosphate 3-kinase catalytic subunit delta isoform (Homo sapiens) (UniProt O00329). The experiment in a line: Inhibition of PIK3CD (unknown origin) assessed as residual activity at 10 uM relative to control.
The target in assay [23] is Serine/threonine-protein kinase PLK4 (Homo sapiens) (UniProt O00444). The experiment in a line: Inhibition of PLK4 (unknown origin) assessed as residual activity at 10 uM relative to control.
Assay [24] has as its target Serine/threonine-protein kinase RIO2 (Homo sapiens) (UniProt Q9BVS4). The experiment in a line: Inhibition of RIOK2 (unknown origin) assessed as residual activity at 10 uM relative to control.
Assay [25] deals with Proto-oncogene tyrosine-protein kinase Src (Homo sapiens) (UniProt P12931). The assay can be described thus: Inhibition of SRC (unknown origin) assessed as residual activity at 10 uM relative to control.
Proto-oncogene tyrosine-protein kinase Src (Homo sapiens), sequence (P12931 2-536 limits assumed): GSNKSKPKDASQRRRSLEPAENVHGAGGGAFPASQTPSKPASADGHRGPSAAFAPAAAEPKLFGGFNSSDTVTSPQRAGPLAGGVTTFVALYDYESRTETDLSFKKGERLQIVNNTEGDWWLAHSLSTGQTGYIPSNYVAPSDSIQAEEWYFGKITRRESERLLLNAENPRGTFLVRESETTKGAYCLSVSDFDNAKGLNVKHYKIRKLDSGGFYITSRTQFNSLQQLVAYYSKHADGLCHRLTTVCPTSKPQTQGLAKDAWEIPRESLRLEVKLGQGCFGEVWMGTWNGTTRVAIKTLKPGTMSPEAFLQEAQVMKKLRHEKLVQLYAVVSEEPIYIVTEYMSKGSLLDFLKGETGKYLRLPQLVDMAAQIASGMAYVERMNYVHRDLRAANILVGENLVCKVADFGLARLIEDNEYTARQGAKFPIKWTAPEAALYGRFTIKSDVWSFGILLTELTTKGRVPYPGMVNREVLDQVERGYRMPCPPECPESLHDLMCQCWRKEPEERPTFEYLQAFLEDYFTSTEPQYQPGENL
In assay [26] the target is Non-receptor tyrosine-protein kinase TNK1 (Homo sapiens) (UniProt Q13470). The assay can be described thus: Inhibition of TNK1 (unknown origin) assessed as residual activity at 10 uM relative to control.
The target of assay [27] is Tyrosine-protein kinase TXK (Homo sapiens) (UniProt P42681). The assay can be described thus: Inhibition of TXK (unknown origin) assessed as residual activity at 10 uM relative to control.
Tyrosine-protein kinase TXK (Homo sapiens), sequence (P42681 whole entry, the tested form may be a part): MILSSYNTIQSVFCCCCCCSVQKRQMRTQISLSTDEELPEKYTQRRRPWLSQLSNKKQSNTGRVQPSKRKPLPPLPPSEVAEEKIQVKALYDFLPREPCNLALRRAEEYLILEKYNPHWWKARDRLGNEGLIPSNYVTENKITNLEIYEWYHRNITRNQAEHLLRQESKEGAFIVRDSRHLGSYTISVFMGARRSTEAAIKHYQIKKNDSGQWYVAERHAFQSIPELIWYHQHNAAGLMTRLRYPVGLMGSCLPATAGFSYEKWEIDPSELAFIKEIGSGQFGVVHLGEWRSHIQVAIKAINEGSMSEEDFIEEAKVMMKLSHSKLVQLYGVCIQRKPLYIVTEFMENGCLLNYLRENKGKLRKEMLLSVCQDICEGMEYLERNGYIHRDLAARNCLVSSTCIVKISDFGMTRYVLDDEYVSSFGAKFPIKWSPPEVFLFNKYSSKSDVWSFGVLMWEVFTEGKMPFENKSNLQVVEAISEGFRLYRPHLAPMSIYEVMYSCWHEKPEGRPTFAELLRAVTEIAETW
For assay [28], the target named is Non-receptor tyrosine-protein kinase TYK2 (Homo sapiens) (UniProt P29597). The experiment in a line: Inhibition of TYK2 JH1 domain catalytic (unknown origin) assessed as residual activity at 10 uM relative to control.
Another assay is filed under the species Homo sapiens. The assay can be described thus: Inhibition of ULK (unknown origin) assessed as residual activity at 10 uM relative to control.
Assay [29] has as its target Mitogen-activated protein kinase kinase kinase 20 (Homo sapiens) (UniProt Q9NYL2). The experiment in a line: Inhibition of ZAK (unknown origin) assessed as residual activity at 10 uM relative to control.

Proto-oncogene tyrosine-protein kinase ROS, sequence (P08922 whole entry): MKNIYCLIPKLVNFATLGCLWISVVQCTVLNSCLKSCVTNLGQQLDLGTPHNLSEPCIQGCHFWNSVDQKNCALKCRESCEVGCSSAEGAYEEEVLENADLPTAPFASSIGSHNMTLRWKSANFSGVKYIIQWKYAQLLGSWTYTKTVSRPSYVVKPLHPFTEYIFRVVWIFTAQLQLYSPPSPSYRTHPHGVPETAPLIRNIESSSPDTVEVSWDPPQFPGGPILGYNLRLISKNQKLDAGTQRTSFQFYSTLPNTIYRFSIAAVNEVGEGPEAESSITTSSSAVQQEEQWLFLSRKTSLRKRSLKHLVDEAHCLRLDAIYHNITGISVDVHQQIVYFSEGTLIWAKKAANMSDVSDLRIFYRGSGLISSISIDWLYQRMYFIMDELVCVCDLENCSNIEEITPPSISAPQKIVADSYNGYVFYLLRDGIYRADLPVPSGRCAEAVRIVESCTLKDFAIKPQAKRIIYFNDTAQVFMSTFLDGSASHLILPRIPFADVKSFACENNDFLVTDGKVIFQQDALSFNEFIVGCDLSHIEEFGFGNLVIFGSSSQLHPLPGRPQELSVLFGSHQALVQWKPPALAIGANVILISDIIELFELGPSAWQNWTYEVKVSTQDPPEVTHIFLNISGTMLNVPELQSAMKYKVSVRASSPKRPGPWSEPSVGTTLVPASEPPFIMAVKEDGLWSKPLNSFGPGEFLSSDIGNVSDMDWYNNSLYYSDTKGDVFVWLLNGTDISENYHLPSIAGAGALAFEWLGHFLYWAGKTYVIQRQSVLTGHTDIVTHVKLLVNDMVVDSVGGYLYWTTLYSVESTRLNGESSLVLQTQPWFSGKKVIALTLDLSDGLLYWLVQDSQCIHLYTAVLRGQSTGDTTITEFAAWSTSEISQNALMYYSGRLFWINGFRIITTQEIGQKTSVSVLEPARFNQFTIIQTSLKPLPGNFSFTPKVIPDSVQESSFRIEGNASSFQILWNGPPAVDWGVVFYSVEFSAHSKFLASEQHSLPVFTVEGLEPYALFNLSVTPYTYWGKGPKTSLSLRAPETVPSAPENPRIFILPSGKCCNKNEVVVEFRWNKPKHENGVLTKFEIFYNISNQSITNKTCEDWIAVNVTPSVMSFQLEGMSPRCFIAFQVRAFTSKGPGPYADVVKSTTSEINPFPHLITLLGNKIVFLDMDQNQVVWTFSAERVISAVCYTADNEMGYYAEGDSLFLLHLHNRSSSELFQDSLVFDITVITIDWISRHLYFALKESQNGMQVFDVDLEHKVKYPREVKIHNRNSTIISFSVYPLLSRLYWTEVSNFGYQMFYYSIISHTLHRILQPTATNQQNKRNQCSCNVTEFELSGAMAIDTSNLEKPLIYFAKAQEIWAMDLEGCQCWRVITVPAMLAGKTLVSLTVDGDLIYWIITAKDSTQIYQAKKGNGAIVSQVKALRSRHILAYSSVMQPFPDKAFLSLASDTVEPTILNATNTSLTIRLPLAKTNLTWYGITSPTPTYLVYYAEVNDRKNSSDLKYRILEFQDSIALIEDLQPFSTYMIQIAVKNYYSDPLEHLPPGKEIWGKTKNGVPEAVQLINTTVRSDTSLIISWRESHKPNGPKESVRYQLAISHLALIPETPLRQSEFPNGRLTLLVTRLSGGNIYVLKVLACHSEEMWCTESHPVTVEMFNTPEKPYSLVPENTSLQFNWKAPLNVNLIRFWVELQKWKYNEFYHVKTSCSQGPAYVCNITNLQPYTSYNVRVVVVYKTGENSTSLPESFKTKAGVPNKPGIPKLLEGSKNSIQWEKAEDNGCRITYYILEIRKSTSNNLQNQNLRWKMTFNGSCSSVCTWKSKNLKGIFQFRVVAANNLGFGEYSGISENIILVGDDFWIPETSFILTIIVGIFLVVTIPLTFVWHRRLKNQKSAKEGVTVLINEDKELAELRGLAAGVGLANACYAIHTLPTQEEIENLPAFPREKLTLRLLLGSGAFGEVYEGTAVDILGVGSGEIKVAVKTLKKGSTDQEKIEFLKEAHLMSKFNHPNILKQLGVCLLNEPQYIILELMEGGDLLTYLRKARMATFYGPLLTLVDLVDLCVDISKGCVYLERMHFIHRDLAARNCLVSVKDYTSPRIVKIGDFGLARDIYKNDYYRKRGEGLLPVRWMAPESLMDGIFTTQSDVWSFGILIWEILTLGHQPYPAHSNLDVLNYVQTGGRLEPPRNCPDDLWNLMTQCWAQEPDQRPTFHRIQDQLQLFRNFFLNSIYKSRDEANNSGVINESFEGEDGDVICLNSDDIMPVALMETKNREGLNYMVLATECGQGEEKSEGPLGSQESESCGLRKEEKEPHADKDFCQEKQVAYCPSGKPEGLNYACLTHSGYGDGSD
Aurora kinase A (Homo sapiens), sequence (O14965 whole entry): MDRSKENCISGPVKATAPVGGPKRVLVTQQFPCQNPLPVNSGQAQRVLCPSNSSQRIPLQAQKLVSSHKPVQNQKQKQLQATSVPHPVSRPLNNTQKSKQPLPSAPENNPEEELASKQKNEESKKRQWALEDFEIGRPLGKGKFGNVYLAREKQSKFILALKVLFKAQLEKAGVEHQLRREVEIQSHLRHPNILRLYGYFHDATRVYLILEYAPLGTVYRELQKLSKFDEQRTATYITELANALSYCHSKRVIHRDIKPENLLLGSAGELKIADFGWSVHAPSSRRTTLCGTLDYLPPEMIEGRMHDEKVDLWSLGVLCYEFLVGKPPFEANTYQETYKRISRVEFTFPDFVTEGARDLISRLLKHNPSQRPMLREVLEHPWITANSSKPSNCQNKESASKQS
AP2-associated protein kinase 1 (Homo sapiens), sequence (Q2M2I8 whole entry, looked up): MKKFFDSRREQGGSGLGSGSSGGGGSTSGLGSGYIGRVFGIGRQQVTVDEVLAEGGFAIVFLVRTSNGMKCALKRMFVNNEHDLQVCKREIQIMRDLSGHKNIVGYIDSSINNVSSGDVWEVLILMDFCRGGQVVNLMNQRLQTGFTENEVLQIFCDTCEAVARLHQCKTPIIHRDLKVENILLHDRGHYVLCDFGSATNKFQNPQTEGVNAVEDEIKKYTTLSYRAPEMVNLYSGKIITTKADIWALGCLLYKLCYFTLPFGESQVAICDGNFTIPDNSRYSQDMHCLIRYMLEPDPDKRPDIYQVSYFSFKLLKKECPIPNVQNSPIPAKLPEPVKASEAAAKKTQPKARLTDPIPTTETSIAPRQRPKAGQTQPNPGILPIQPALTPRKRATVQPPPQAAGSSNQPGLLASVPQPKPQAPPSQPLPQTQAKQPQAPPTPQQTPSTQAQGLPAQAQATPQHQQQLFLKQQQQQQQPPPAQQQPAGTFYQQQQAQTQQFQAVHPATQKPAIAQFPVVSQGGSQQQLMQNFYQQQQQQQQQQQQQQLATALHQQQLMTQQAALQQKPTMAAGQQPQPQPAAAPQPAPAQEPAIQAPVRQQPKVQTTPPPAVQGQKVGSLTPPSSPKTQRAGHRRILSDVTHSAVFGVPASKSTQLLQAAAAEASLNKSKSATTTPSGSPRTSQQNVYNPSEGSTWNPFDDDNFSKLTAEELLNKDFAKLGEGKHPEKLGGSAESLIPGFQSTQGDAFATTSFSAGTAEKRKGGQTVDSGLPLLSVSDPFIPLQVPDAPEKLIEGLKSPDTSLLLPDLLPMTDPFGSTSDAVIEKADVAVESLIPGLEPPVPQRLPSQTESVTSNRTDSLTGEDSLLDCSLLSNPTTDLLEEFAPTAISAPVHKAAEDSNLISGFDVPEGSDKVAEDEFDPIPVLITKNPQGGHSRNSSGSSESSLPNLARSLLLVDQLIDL

On to `COc1cc(C)cc(-c2nn(C)cc2-c2cc(N3CCOCC3)nc(-c3cccnc3)n2)c1`, for which the concentration for half-maximal inhibition (IC50) in [1] worked out at 59.1 nM.

With `Cc1cc(O)cc(-c2c(-c3cc(N4CCOCC4)nc(-c4cccnc4)n3)cnn2C)c1`, in [1], the IC50 was determined as 91.5 nM.

With `Cc1cc(O)cc(-c2c(-c3cc(NCCCCO)nc(-c4cccnc4)n3)cnn2C)c1`, the IC50 in assay [1] was determined as 25.4 nM.

Consider `COc1cc(C)cc(-c2nn(C)cc2-c2cc(N3CC(O)C3)nc(-c3cccnc3)n2)c1`, for which the IC50 in assay [1] worked out at 108 nM.

As to `Cc1cc(O)cc(-c2c(-c3cc(N4CC(O)C4)nc(-c4cccnc4)n3)cnn2C)c1`, the IC50 in assay [1] was 56.6 nM.

In the case of `Cc1cc(O)cc(-c2c(-c3cc(NC[C@H](C)O)nc(-c4cccnc4)n3)cnn2C)c1`, the IC50 in [1] came out at 139 nM.

Take `COc1cc(C)cc(-c2c(-c3cc(N4CCOCC4)nc(-c4cccnc4)n3)cnn2C)c1`: in assay [1], the IC50 is 104 nM.

Consider `Cc1cc(O)cc(-c2nn(C)cc2-c2cc(N3CC(O)C3)nc(-c3cccnc3)n2)c1`, for which the IC50 in assay [1] was determined as 86.5 nM.

Turning to `Cc1cc(O)cc(-c2nn(C)cc2-c2cc(NCCCCO)nc(-c3cccnc3)n2)c1`, in assay [1], the IC50 stood at 133 nM.

As for `Cc1cc(O)cc(-c2nn(C)cc2-c2cc(N3CCOCC3)nc(-c3cccnc3)n2)c1`, the IC50 in assay [1] was 13.6 nM. The Activity in [2] stood at 18%; in assay [3], 15%; in assay [4], 31%; in [5], 31%; in [6] it was 11%; in assay [7], 20%. For the same compound, the Activity in [8] was found to be 30%; in assay [9], 18%; in [10] it was 4.2%; in assay [11], 3%; in assay [12], 3.3%; in assay [13] it was 28%. The Activity is 3% in [14]; 20% in assay [15]; 17% in assay [16]; 51% in assay [17]; 4% in assay [18]; 13% in assay [19]. The Activity turned out to be 14% in [20]; 7.2% in assay [21]; 4.4% in [22]; 6.8% in assay [23]; 10% in [24]; 25% in assay [25]. For the same compound, the Activity in [26] was found to be 9.2%; in assay [27], 9.6%; in assay [28] it was 2.6%; in the assay listed under Homo sapiens, 71%; in assay [29] it was 92%.

`COc1cc(C)cc(-c2c(-c3cc(NC[C@H](C)O)nc(-c4cccnc4)n3)cnn2C)c1`: in assay [1], the IC50 came to 283 nM.

Turning to `COc1cc(C)cc(-c2c(-c3cc(N4CC(O)C4)nc(-c4cccnc4)n3)cnn2C)c1`, the IC50 in [1] stood at 74.2 nM.

In the case of `COc1cc(C)cc(-c2c(-c3cc(NCCCCO)nc(-c4cccnc4)n3)cnn2C)c1`, in assay [1], the IC50 came out at 138 nM.

On to `COc1cc(C)cc(-c2nn(C)cc2-c2cc(NC[C@H](C)O)nc(-c3cccnc3)n2)c1`, for which the IC50 in [1] was determined as 241 nM.

On to `COc1cc(C)cc(-c2nn(C)cc2-c2cc(NCCCCO)nc(-c3cccnc3)n2)c1`, for which the IC50 in assay [1] amounted to 63.8 nM.

Turning to `Cc1cc(O)cc(-c2nn(C)cc2-c2cc(NC[C@H](C)O)nc(-c3cccnc3)n2)c1`, the IC50 in assay [1] was 105 nM.

Usually IC50 stands for the concentration that inhibits the measured activity by half.

The values are drawn from ChEMBL document CHEMBL3352819, “Structure-based optimization and biological evaluation of trisubstituted pyrazole as a core structure of potent ROS1 kinase inhibitors” (Bioorg Med Chem, 2014).
